# Source: PMC10876669, “Substrate promiscuity of inositol 1,4,5-trisphosphate kinase driven by structurally-modified ligands and active site plasticity” (Nature Communications, 2024)
# “And” between values parts separate entries of the source, which are not always exact repeats. Equal values may be shown once. “Also recorded” adds a separate entry of the source.
# Assays:
# [1] = biological target: T1, IP3K-KD (human IP3K-KD A isoform, residues 187–461) (Homo sapiens, UniProt P23677); test: Ligand displacement assay: fluorescence polarization (anisotropy) of 2-FITC-InsP3/IP3K-KD complex; assay type: binding; settings: for IC50: 100 nM IP3K-KD, 2 nM 2-FITC-InsP3, 20 mM HEPES pH 7.5, 1 mM EDTA, 50 mM KCl, n=4 replicates, 5-s and 5-p racemic, read-out: IC50, displacement of 2-FITC-InsP3 from IP3K-KD; for Kd: estimated Ki (Kd) from IC50 with [2-FITC-InsP3] 2 nM and its Kd 68 nM, read-out: Kd inferred from IC50 (Cheng and Prusoff)
# T1 construct: human IP3K-KD A isoform (residues 187–461); GST (cleaved yes); made in house; host or cells: Escherichia coli BL21 star (DE3)
# Procedure: (§1) A construct encoding human IP3K-KD A isoform (residues 187–461) into pOPTG vector was used[16]. The protein was expressed in Escherichia coli BL21 star (DE3) strain. Cells were grown at 37 °C to OD600 = 1.0 then induced with 0.4 mM IPTG for 18 h at 16 °C. Protein purification was performed by adapting the reported protocol. Cells were resuspended in buffer A (10 mM Tris pH 7.5 [4 °C], 200 mM NaCl and 2 mM DTT) and disrupted by sonication. Clarified cell lysate was diluted 1/4 in buffer B (10 mM Tris pH 7.5 [4 °C] and 2 mM DTT) and loaded into a 5 mL HiTrap heparin column (GE Healthcare) washed by buffer C (20 mM Tris pH 7.5, 50 mM NaCl and 2 mM DTT), and eluted with a 0.05 M–1 M salt gradient. The eluted sample was subsequently loaded on to a 5 mL glutathione–Sepharose HP column (GE Healthcare), washed with buffer A and eluted with reduced glutathione 10 mM (Sigma-Aldrich) in buffer A. The GST tag was cleaved with home-made TEV (tobacco etch virus) protease overnight at 4 °C, (1:40 TEV/protein mass ratio). After glutathione removal with a PD10 column, the cleaved protein was further purified using a 5 mL glutathione–Sepharose HP column (GE Healthcare) followed by gel filtration on a 16/600 Superdex200 (GE Healthcare) column equilibrated in buffer D (20 mM Tris pH 7.5 [4 °C], 0.05 M (NH4)2SO4 and 2 mM DTT). Protein samples were analyzed by SDS/PAGE, concentrated around 18 mg/mL and stored at −80 °C until use.
# Binding of a competing/displacing ligand to protein is observed as a decrease in the polarization (anisotropy) of 2-FITC-InsP3. A comparison of the strength of binding of enzyme substrates, analogues and products to IP3K-KD was obtained by measurement of fluorescence polarization (here anisotropy) of 2-FITC-InsP3/IP3K-KD complex. Experimentally, 100 nM IP3K-KD was mixed with 2 nM 2-FITC-InsP3[37] in 20 mM HEPES pH 7.5, 1 mM EDTA and 50 mM KCl with the addition of displacing compounds over a range of 1 nM–50 μM. Assays were analyzed using a ClarioSTAR plate reader and IC50 values determined from fit of the data to a 4-parameter logistic as described. From IC50 values, we have estimated the Ki (Kd) values for the displacing ligands using the equation of Cheng and Prusoff:[69]1 Ki=IC50/1+L/Kd where [L] is the ligand (2-FITC-InsP3) concentration and Kd the dissociation constant for its interaction with IP3K-KD. […] Consequently, the Ki values for the displacing ligands differ trivially from their IC50 values.
# IP3K-KD = biological target: T2, IP3K-KD (Homo sapiens, UniProt P23677); test: HPLC analysis of IP3K-KD reaction mixtures (substrate test); assay type: biochemical; settings: 150 nM IP3K-KD, 500 μM analogue, 1 mM ATP, 2 h at 30 °C, Fig. 7a
# T2 construct: human IP3K-KD A isoform (residues 187–461); GST (cleaved yes); made in house; host or cells: Escherichia coli BL21 star (DE3)
# Procedure: as §1
# [2] = biological target: T1, IP3K-KD (human IP3K-KD A isoform, residues 187–461); test: Fluorescence thermal shift analysis (Tycho NT.6, inflection temperature Ti); assay type: binding; settings: for Ti, transition 1 (mean inflection temperature) / Ti, transition 2 (mean inflection temperature): 10 μM IP3K-KD, 100 μM chiral or 200 μM racemic ligand, AMP-PNP or ADP, 100 μM MgCl2; for Ti, transition 1 (mean inflection temperature) / Ti, transition 2 (mean inflection temperature) / ΔTi, transition 1 / ΔTi, transition 2: mean ± SD, n=3; for ΔTi, transition 1: Ti minus Ti of apo IP3K-KD (44.4); for ΔTi, transition 2: Ti minus Ti of apo IP3K-KD (53.8); for Transition 1 Ti, individual measurement / Transition 2 Ti, individual measurement: source data of Fig. 6b/6c, single replicates; for Transition 1 Dti (Ti-Ti Apo) / Transition 1 Ti Mean / Transition 2 DTi (Ti-Ti Apo) / Transition 2 Ti Mean: source data of Fig. 6c, N 3; for Stabilization of IP3K-KD by ligand (in words): thermal shift, Fig. 6c
# Procedure: as §1
# Thermal protein denaturation was documented by recording intrinsic protein fluorescence at 330 and 350 nm wavelengths. The fluorescence recorded in each thermal run is plotted as 350/330 nm ratio and used to calculate the Inflection Temperature (Ti). Ti is the temperature at which a protein undergoes a transition in its folding state. This calculation is performed automatically by the Tycho NT.6 software. The protocol optimized for this procedure, involves a heating time of 2 min, a sample volume of 10 μl placed in a very thin capillary, and a temperature ramp from 35 °C (308 K) to 95 °C (368 K). For the experiment, IP3K-KD was diluted with buffer D to achieve a concentration of 0.31 mg/mL (10 μM). It was then mixed with 100 μM of chiral ligands or 200 μM of racemic ligands (all synthesized as stated in this work except InsP3 and InsP4 that were commercial from Avanti Polar Lipids), AMP-PNP (substrate analogues) or ADP (product-like ligands) and 100 μM MgCl2. Microsoft Excel was used to calculate and plot ΔTi values and standard deviations.
# [3] = tested on: permeabilized rabbit platelets; parameters: method as in doi:10.1016/0960-894X(96)00399-X; settings: cited from earlier work
# T2 sequence (P23677 187-461): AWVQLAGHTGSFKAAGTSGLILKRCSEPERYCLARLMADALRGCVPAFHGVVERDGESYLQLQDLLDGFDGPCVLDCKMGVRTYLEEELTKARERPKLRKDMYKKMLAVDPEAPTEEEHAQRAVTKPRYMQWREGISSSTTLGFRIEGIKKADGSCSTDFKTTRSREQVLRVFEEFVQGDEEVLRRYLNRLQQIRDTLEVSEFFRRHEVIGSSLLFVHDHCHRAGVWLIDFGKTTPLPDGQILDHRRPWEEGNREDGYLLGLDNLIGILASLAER
# T1 sequence (P23677 187-461): as above
SMILES,IC50 [1] [nM],Kd [1] [nM],Ability to act as IP3K substrate (in words) (IP3K-KD),"Ti, transition 1 (mean inflection temperature) [2]","Ti, transition 2 (mean inflection temperature) [2]","ΔTi, transition 1 [2]","ΔTi, transition 2 [2]","Transition 1 Ti, individual measurement [2]","Transition 2 Ti, individual measurement [2]",Transition 1 Dti (Ti-Ti Apo) [2],Transition 1 Ti Mean [2],Transition 2 DTi (Ti-Ti Apo) [2],Transition 2 Ti Mean [2],Quality as IP3K ligand (in words) ([1]; Fig. 6),45Ca2+ release relative to InsP3 [3],Stabilization of IP3K-KD by ligand (in words) [2],"Binding to IP3K (in words) ([2]; Fig. 6b,c)"
"O=P(O)(O)O[C@@H]1[C@@H](O)[C@H](O)[C@@H](OP(=O)(O)O)[C@H](OP(=O)(O)O)[C@H]1O [1-s, L-scyllo-inositol 1,2,4-trisphosphate]",36,35,is a good IP3K substrate,55.6 ± 0.1 ºC,60.7 ± 0.2 ºC,11.2 ± 0.3 ºC,6.9 ± 0.2 ºC,55.7 and 55.6 (2×),60.8 and 60.5 and 60.7,11.2,55.6,6.9,60.7,–,–,–,–
"O=P(O)(O)O[C@@H]1[C@@H](O)[C@H](CO)[C@@H](OP(=O)(O)O)[C@H](OP(=O)(O)O)[C@H]1O (racemic) [5-s, DL−6-deoxy-6-hydroxymethyl-scyllo-inositol 1,2,4-trisphosphate]",972,944,are also substrates,51.3 ± 0.2 ºC,57.0 ± 0.1 ºC,6.9 ± 0.4 ºC,3.2 ± 0.2 ºC,51.5 and 51.1 and 51.3,56.9 (2×) and 57.1,6.9,51.3,3.2,57.0,good IP3K ligand,equipotent with InsP3 itself,–,–
"O=P(O)(O)O[C@H]1O[C@H](CO)[C@@H](OP(=O)(O)O)[C@H](OP(=O)(O)O)[C@H]1O [6b–s, α-D-glucopyranosyl 1,3,4-trisphosphate]",8980,8720,weaker substrates,45.7 ± 0.5 ºC,54.6 ± 0.0 ºC,1.3 ± 0.6 ºC,0.8 ± 0.2 ºC,45.5 and 46.3 and 45.3,54.6,1.3,45.7,0.8,54.6,–,–,stabilize IP3K-KD much less than InsP3,–
"O=P(O)(O)OC[C@H]1O[C@H](CO)[C@@H](OP(=O)(O)O)[C@H](OP(=O)(O)O)[C@H]1O [7b–s, α-D-glucopyranosylmethanol 3,4,1’- trisphosphate]",6990,6790,weaker substrates; also recorded: poor substrate activity for IP3K,45.6 ± 0.7 ºC,54.4 ± 0.3 ºC,1.2 ± 0.7 ºC,0.6 ± 0.3 ºC,45.4 and 45.1 and 46.4,54.1 and 54.6 and 54.4,1.2,45.6,0.567,54.4,–,–,stabilize IP3K-KD much less than InsP3,"do not, or barely, bind IP3K"
"O=P(O)(O)O[C@@H]1O[C@H](CO)[C@@H](OP(=O)(O)O)[C@H](OP(=O)(O)O)[C@H]1O [6a–s, β-D-glucopyranosyl 1,3,4-trisphosphate]",205,199,are also substrates,51.5 ± 0.2 ºC,57.3 ± 0.1 ºC,7.1 ± 0.3 ºC,3.5 ± 0.2 ºC,51.4 and 51.5 and 51.7,57.4 (2×) and 57.2,7.1,51.5,3.5,57.3,–,–,–,–
"O=P(O)(O)OC[C@@H]1O[C@H](CO)[C@@H](OP(=O)(O)O)[C@H](OP(=O)(O)O)[C@H]1O [7a–s, β-D-glucopyranosylmethanol 3,4,1’-trisphosphate]",656,637,are also substrates,49.7 ± 0.4 ºC,56.1 ± 0.3 ºC,5.3 ± 0.5 ºC,2.3 ± 0.3 ºC,50.2 and 49.5 and 49.4,55.9 and 56.1 and 56.4,5.3,49.7,2.3,56.1,–,–,–,–
